Test results: patent publication US8551721B2, “Bioluminescent detection of cyanohydroxy benzothiazole compounds” (Promega Corporation, priority 2008, dated 2013)

Legend:
Format in all cases: biochemical
[1] = system: endogenously expressed UGT isozymes in mammalian microsomes; test: Utilization of compounds by mammalian microsomes; settings: 15 minutes at 37° C., 0.1 mg/mL mammalian microsomes or 0.2 mg/mL Supersomes, 50 μM compound
Method: The invention includes a method of determining activity of the uridine 5′-diphospho-glucuronosyltransferase (UDP-glucuronosyltransferase, or UGT) family enzymes in vitro. […] Following the UGT enzyme reaction, an equal volume of P450-Glo Luciferin Detection Reagent (Promega) containing 15-30 mM D-cysteine-HCl.H2O (Sigma) was added and the plate was mixed and incubated at room temperature, typically for 20-30 minutes. P450-Glo Luciferin Detection Reagent can be prepared by dissolving a vial of Promega Luciferin Detection Reagent (Promega Part #V859B) with a vial of Promega P450-Glo Buffer (Promega Part #V865B).
During this incubation, the cysteine reacts with the cyanobenzathiozole substrate to yield a D-luciferin derivative. […] Therefore, activity of the UGT enzyme can be measured by analyzing the difference (lower or no output) in relative light units (RLU) of a sample in which glucuronidation occurs compared to a sample that was run under the same conditions with no added UDPGA cofactor.
Tissue microsomes were obtained from Xenotech LLC or BD Gentest.

UGT 1A1 = target: T1, UGT 1A1 (Homo sapiens, UniProt P22309); test: Assay variability (Z') with UGT 1A1 Supersomes and compound 3138; settings: 0.2 mg/mL Supersomes, 30 μM compound 3138, plus or minus 5 mM UDPGA, 12 samples each, 120 mM at 37° C.
T1 construct: purchased BD Gentest; host or cells: insect cells (microsomes)
T1 sequence (P22309 26-533): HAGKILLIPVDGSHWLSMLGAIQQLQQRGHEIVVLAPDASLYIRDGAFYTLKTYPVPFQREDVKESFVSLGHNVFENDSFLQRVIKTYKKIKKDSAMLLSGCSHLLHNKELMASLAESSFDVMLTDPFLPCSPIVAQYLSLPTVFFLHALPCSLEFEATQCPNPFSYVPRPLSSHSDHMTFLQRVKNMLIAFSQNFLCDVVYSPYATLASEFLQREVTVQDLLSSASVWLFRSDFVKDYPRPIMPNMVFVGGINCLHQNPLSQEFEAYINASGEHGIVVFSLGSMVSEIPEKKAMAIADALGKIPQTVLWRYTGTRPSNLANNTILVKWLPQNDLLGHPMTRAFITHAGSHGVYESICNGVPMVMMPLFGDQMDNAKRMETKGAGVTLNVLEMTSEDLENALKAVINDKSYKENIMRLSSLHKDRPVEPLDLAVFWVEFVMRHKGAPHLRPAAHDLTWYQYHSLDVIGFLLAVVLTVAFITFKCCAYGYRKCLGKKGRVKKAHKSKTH
Method: (§1) Assay variability was determined using the activity data and standard deviations of 12 separate minus UDPGA and plus UDPGA samples. All reactions contained 50 mM TES, pH 7.5, 8 mM MgCl2, 25 μg/mL alamethicin, 0.2 mg/mL UGT 1A1 or 2B7 Supersomes™, and 30 μM compound 3138, plus or minus 5 mM UDPGA. After […] at 37° C., 40 μl, of LDR plus 20 mM D-cysteine was added to each 40 μl, reaction and mixed. After 20 minutes at room temperature, RLU were read on a luminometer.
(§2) Z′ values were calculated using the equation outlined below.
(§3) Robust assay systems typically display Z′ values of 0.5 or higher. The calculated Z′ value for UGT 1A1 was 0.83. The calculated Z′ value for UGT 2B7 under the same conditions was 0.67.

UGT 2B7 = target: T2, UGT 2B7 (Homo sapiens, UniProt P16662); test: Assay variability (Z') with UGT 2B7 Supersomes and compound 3138; settings: 0.2 mg/mL Supersomes, 30 μM compound 3138, plus or minus 5 mM UDPGA, 12 samples each, 120 mM at 37° C.
T2 construct: purchased BD Gentest; host or cells: insect cells (microsomes)
T2 sequence (P16662 24-529): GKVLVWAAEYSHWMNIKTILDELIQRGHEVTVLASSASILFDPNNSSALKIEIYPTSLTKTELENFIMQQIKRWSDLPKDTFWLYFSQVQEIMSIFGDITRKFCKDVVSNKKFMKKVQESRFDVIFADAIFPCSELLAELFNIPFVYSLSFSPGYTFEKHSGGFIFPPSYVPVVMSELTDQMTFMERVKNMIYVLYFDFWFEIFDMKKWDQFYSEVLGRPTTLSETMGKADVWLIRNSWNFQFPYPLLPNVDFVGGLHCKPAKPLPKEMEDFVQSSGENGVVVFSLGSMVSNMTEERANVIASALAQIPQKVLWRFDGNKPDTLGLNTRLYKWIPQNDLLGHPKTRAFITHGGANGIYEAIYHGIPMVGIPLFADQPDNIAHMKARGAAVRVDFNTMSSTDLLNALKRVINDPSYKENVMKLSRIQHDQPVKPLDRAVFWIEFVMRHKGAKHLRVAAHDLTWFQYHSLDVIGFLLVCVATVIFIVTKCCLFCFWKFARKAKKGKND
Method: as §1, §2, §3

SMILES: Cc1cc(O)cc2sc(C#N)nc12 [compound 3138]
- utilization of compound 3138 by tissue microsomes compared with control 1A1 Supersomes [1]: All tissues tested utilized much more compound 3138 than the control 1A1 Supersomes
- calculated Z′ value for UGT 1A1 (UGT 1A1): 0.83
- calculated Z′ value for UGT 2B7 (UGT 2B7): 0.67
